Among the data in patent US9370520B2, “Macrocyclic LRRK2 kinase inhibitors” (IPSEN PHARMA S.A.S., priority 2011, dated 2016) are ring closure, yield of all isomers, melting point and IC50 values, retold here.

The conditions of series [1]: amide bond, HBTU/DIPEA, DMF, 10.0 mM, 25.0 °C, 2.0 h.
Series [2] addresses T1, truncated LRRK2-G2019S (GST tagged LRRK2-G2019S of amino acids 970-2527) (Homo sapiens, UniProt Q5S007, G2019S).
T1 construct: GST tagged LRRK2-G2019S of amino acids 970-2527; GST
As to the kind of experiment: LRRKtide 32P-ATP peptide kinase assay (Protocol 1), truncated LRRK2-G2019S. Type of series: biochemical. The note with it: 10 μM ATP, 200 μM lrrktide. Here is the method: (§1) The inhibition of LRRK2 and LRRK1 kinase was assessed using LRRK2 and LRRK1 recombinant protein in an in vitro peptide-based kinase assay.
(§2) LRRK2 protein is prepared as described in Daniëls et al. ((2011) J Neurochem 116, 304-315.). HEK293T cells are transfected with pCHMWS-3xflag-LRRK2 plasmid using polyethyleneimine and lysed after 48-72 hours in lysis buffer (Tris 20 mM pH 7.5, NaCl 150 mM, EDTA 1 mM, Triton 1%, Glycerol 10%, protease inhibitor cocktail). Lysates are cleared by centrifugation at 20,000 g for 10 minutes and incubated with normal mouse IgGs bound to agarose beads to remove proteins aspecifically binding to agarose or mouse IgGs. After removal of the IgG bead slurry, lysates are incubated for 3 to 18 hours with flagM2 bound to agarose beads. Beads are washed 4 times with wash buffer (Tris 25 mM pH 7.5, NaCl 400 mM, Triton 1%) and rinsed in kinase buffer (Tris-HCl 25 mM pH 7.5, 10 mM MgCl2, 2 mM dithiothreitol (DTT), 0.02% triton, 5 mM beta-glycerophosphate, 0.1 mM Na3VO4). Proteins are eluted in 5 volumes of kinase buffer containing 100 μg/ml 3xflag peptide. For assays using purified protein bound to affinity resin, affinity beads are resuspended in an equal volume of kinase buffer unless otherwise indicated. Purity and concentration are assessed by SDS-PAGE (3-8% tris-acetate SDS gel) and Coomassie Brilliant Blue staining or silver staining. Alternatively, a truncated LRRK2 enzyme (GST tagged LRRK2 of amino acids 970-2527) and a truncated LRRK2-G2019S (GST tagged LRRK2-G2019S of amino acids 970-2527) are used.
(§3) For Irrktide phosphorylation, recombinant LRRK2 is incubated with 6 μCi of 32P-ATP (3000 Ci/mmol), 200 μM Irrktide, 10 μM ATP and compound or solvent per 40 μl reaction for 30 minutes at 30° C. Compounds are tested at concentrations ranging from […]; the final amount of DMSO in the kinase reaction is 1%. Reactions are stopped and spotted to P81 phosphocellulose paper and washed 4×10 minutes in 75 mM phosphoric acid. Lrrktide phosphorylation levels are measured via autoradiography. Kinase assays are performed for each condition in triplicate.
(§4) LRRKtide phosphorylation levels are plotted vs. the log of the compound concentration and inhibition curves are fitted from which IC50 values are derived.

A further series concerns the target T2, full-length LRRK2 (Homo sapiens, UniProt Q5S007).
T2 construct: full-length; made in house; host or cells: HEK293T
As to the kind of experiment: LRRKtide 32P-ATP peptide kinase assay (Protocol 1), full-length LRRK2. The format is biochemical. As to conditions: 10 μM ATP, 200 μM lrrktide. Here is the method: as §1, §2
For Irrktide phosphorylation, recombinant LRRK2 is incubated with 6 μCi of 32P-ATP (3000 Ci/mmol), 200 μM Irrktide, 10 μM ATP and compound or solvent per 40 μl reaction for 30 minutes at 30° C. Compounds are tested at concentrations ranging from […]; the final amount of DMSO in the kinase reaction is 1%. Reactions are stopped and spotted to P81 phosphocellulose paper and washed 4×10 minutes in 75 mM phosphoric acid. Lrrktide phosphorylation levels are measured via autoradiography. Kinase assays are performed for each condition in triplicate. […]

Series [3] has as its target T3, truncated LRRK2 (GST tagged LRRK2 of amino acids 970-2527) (Homo sapiens, UniProt Q5S007).
T3 construct: GST tagged LRRK2 of amino acids 970-2527; GST
Briefly: LRRKtide 32P-ATP peptide kinase assay (Protocol 1), truncated LRRK2. The format is biochemical. The note with it: 10 μM ATP, 200 μM lrrktide. Here is the method: as §1, §2, §3, §4

Like-named read-outs stand apart in the source and are kept apart here.

T2 sequence (Q5S007 whole entry): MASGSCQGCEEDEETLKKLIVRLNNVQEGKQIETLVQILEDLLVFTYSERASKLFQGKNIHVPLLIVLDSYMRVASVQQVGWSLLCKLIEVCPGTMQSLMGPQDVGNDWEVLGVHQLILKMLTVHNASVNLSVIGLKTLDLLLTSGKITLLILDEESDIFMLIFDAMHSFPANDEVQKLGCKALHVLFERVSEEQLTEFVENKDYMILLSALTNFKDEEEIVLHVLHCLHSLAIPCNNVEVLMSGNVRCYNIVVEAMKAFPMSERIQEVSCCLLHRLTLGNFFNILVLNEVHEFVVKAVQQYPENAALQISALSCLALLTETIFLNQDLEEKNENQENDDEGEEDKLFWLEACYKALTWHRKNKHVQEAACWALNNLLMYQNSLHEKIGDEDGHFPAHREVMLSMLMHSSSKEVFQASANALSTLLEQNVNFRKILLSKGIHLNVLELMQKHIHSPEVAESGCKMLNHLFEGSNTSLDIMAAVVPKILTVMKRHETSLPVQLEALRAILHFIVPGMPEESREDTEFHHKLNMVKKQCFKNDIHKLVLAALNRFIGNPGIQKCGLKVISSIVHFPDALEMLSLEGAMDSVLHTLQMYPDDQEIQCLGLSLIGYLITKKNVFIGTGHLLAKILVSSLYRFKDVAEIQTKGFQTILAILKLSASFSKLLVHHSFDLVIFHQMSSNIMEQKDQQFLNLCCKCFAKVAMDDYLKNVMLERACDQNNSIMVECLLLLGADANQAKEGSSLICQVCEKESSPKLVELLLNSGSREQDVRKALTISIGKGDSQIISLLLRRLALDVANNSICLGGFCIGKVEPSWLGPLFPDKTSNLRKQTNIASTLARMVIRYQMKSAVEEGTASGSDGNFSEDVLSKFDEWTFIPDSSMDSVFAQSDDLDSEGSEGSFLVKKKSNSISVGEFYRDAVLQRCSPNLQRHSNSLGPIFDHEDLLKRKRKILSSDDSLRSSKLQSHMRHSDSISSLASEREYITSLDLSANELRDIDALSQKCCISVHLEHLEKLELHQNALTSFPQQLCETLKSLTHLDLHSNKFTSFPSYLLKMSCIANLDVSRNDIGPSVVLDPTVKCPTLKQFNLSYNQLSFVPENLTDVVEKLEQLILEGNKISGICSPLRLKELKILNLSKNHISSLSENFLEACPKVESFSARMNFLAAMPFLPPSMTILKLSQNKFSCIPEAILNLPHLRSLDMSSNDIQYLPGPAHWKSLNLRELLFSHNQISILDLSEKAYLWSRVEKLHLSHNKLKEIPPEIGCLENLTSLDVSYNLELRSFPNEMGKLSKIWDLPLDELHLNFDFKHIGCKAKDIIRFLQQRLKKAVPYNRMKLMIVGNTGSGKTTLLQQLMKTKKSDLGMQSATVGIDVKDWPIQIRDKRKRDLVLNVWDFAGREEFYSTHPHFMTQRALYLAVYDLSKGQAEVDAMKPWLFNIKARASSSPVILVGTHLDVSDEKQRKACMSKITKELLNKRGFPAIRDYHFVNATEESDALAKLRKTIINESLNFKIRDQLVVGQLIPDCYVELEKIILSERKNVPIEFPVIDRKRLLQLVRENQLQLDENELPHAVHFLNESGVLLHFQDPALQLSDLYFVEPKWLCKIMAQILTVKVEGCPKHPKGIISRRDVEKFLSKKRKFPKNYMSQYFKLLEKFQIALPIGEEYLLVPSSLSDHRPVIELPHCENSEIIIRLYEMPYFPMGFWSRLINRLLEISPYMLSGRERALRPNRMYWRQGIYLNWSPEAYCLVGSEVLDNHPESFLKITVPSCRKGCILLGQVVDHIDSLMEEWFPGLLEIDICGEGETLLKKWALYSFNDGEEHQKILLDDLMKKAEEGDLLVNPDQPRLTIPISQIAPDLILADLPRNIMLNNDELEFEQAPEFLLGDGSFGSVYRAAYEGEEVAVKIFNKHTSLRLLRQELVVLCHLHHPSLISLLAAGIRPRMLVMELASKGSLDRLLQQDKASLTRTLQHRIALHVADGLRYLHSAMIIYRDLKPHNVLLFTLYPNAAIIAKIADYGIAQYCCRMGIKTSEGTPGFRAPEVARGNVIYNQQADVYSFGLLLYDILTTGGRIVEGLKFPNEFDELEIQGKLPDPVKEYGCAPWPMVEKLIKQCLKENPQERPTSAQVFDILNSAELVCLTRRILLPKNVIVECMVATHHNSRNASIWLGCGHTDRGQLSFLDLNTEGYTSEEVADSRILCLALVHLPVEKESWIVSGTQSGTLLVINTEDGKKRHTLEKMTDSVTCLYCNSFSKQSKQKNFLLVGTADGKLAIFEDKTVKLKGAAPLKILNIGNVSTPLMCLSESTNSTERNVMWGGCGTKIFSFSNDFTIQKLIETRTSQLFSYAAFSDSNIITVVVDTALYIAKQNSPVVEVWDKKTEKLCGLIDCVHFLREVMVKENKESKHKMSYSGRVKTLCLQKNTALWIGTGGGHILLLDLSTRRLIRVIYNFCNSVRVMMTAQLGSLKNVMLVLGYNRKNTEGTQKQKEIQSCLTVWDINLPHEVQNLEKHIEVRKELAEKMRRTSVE
T1 sequence (Q5S007 970-2527 G2019S): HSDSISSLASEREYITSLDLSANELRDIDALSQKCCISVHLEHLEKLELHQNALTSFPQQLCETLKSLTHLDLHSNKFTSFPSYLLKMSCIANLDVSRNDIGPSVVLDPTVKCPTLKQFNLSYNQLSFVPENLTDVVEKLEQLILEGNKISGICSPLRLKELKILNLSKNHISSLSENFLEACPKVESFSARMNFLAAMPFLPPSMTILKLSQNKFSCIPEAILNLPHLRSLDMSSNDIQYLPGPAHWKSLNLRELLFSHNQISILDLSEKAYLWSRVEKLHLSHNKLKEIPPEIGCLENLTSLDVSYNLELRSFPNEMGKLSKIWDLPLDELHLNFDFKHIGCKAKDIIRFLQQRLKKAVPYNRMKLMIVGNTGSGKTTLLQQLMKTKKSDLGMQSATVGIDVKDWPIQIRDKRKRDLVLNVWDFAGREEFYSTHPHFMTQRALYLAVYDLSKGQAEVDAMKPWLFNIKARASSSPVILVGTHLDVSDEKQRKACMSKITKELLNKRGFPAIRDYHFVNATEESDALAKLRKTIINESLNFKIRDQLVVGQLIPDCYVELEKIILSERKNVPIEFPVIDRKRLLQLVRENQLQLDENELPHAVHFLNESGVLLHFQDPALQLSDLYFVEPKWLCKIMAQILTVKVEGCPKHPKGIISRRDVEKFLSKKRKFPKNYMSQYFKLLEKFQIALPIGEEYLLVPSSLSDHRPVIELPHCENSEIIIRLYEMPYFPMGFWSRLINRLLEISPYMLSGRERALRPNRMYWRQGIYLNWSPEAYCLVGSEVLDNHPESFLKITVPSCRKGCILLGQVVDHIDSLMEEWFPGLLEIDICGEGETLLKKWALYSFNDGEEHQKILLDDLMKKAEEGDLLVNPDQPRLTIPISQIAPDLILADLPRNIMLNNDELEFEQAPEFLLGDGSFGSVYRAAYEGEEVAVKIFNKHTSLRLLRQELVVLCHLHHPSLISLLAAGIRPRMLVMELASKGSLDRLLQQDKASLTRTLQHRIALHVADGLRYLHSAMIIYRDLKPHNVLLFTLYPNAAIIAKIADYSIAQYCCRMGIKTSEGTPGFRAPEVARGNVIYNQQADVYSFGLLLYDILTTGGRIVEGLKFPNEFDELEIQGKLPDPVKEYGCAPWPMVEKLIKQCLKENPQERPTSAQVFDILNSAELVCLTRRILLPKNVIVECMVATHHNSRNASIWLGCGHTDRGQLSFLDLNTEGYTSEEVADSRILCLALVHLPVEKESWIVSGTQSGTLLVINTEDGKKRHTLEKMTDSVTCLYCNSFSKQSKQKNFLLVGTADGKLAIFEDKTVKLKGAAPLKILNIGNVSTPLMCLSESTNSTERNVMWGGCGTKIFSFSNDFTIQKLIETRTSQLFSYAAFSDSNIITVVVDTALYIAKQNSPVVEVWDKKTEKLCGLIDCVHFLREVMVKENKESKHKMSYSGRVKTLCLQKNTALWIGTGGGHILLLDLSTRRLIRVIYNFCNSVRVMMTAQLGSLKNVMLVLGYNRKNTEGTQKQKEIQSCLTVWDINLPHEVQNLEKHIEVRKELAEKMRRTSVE
T3 sequence (Q5S007 970-2527): as the sequence (Q5S007 970-2527 G2019S) above, with S1050G counted along it

Take `O=C1CNc2ccn3ncc(c3n2)-c2cccc(c2)OCCCCN1`: the melting point is more than 300 °C. Also, in series [1] (from NCCCCOc1cccc(-c2cnn3ccc(NCC(=O)O)nc23)c1), the ring closure, yield of all isomers came to 19%.
`O=C1CNc2ccn3ncc(c3n2)-c2cccc(c2)OCCOCCN1` [Compound 72] came in with a melting point of 272.5 °C. The molecule also displayed a ring closure, yield of all isomers in series [1] (from NCCOCCOc1cccc(-c2cnn3ccc(NCC(=O)O)nc23)c1) of 30%.
In turn, `O=C1CCCOc2cccc(c2)-c2cnn3ccc(nc23)NCCN1` [Example 2] displayed a melting point of more than 300 °C. In series [2], the IC50 lay in the range of 100 to 1000 nM. On full-length LRRK2, this molecule registered an IC50 of less than 100 nM. Moreover, the IC50 in series [3] is 100 to 1000 nM.
For `O=C1CCNc2ccn3ncc(c3n2)-c2cccc(c2)OCCN1` [Example 3], the melting point was more than 300 °C. For the same molecule, the IC50 in series [2] is less than 100 nM. The IC50 on full-length LRRK2 is less than 100 nM. This molecule also gave an IC50 in series [3] of less than 100 nM.
The molecule `CN1CCNc2ccn3ncc(c3n2)-c2cccc(c2)OCC1=O` [Example 5] had a melting point of more than 300 °C. The IC50 in series [2] lay within 100 to 1000 nM. Further, the IC50 against full-length LRRK2 lay in the range of 100 to 1000 nM. This molecule also returned an IC50 in series [3] of 100 to 1000 nM.

By melting point is commonly meant the temperature of the solid-liquid transition. In general, IC50 refers to the point on the concentration scale where inhibition reaches its midpoint. Lower therefore signals greater potency.
